Structures can show the parent of a compound that is named as a salt. Marks after values point to notes of the source that are not given here.
How the values were obtained:
[1] = system: A375P F11s; test: In vivo tumor growth, A375P F11s subcutaneous tumors; parameters: species or system athymic mice; key: −: no response; +: growth delay (1-2×doubling); ++: growth delay (>2×doubling); +++: stable disease; ++++: partial regression; +++++: complete regression; conditions: oral, 14-day period
Method: (§1) A375P F11s and Colo205 cells were cultured in RPMI 1640 medium supplemented with 10% fetal bovine serum and 1% sodium pyruvate or 10% fetal bovine serum and without sodium pyruvate, respectively. Tumor cells (1.75×10^6 A375P F11 s or 5×10^6 Colo205) were implanted subcutaneously into the right flank of athymic mice on Day 1. To facilitate their growth, A375P F11s cells were suspended in Matrigel diluted 1:1 in phosphate-buffered saline before implantation. When tumors had reached approximately 200 mm^3 in volume (Day 19-22), tumor-bearing mice were randomized into study groups (n=7 or 8). Animals were dosed orally once or twice daily for a 14-day period. The compound of Example 19b was dosed in a 0.5% HPMC/0.2% Tween 80 pH 7-8 vehicle. Tumor growth was measured twice a week using calipers for the duration of the study. Tumor volumes were calculated as a product of (length×width×width)/2 and median values were used to compare groups. Complete regressions (CR) were defined as three consecutive tumor measurements of ≦13.5 mm^3. Partial regressions were defined as three consecutive measurements of ≦50% of starting tumor volume. Tumor growth delay was defined as the difference in time taken for treated and control groups to reach 1000 mm^3 (T-C1000).

[2] = system: Colo205; test: In vivo tumor growth, Colo205 subcutaneous tumors; parameters: species or system athymic mice; key: −: no response; +: growth delay (1-2×doubling); ++: growth delay (>2×doubling); +++: stable disease; ++++: partial regression; +++++: complete regression; conditions: oral, 14-day period
Method: as §1

Structure (SMILES): COc1cc(N2CCN(CCS(C)(=O)=O)CC2)c(C)cc1Nc1nccc(-c2sc(C(C)C)nc2-c2cccc(NS(=O)(=O)c3c(F)cccc3F)c2)n1 [Example 19b, 2,6-Difluoro-N-(3-(2-(1-methylethyl)-5-(24(5-methyl-2-(methyloxy)-4-(4-[2-(methylsulfonyl)ethyl]-1-piperazinyl}phenyl)amino]-4-pyrimidinyl}-1,3-thiazol-4-yl)phenyl]benzenesulfonamide dihydrochloride]
- Response ([1]; 1 mg/kg bid): −
- Response ([1]; 3 mg/kg bid): +
- Response ([1]; 10 mg/kg bid): ++
- Response ([1]; 30 mg/kg bid): ++++
- Response ([1]; 30 mg/kg qd, during dosing): +++ (during dosing)*
- Response ([2]; 30 mg/kg bid): ++
- Response ([2]; 30 mg/kg qd): −
- Response ([2]; 100 mg/kg bid): ++++
- Response ([2]; 300 mg/kg qd): ++++
